Consider 12 molecules from patent US10093630B2, “Pyrazole compounds and methods of making and using same” (ABIDE THERAPEUTICS, INC., priority 2014, dated 2018).

Like-named read-outs stand apart in the source and are kept apart here. Bounds are passed on as bounds.

Test in all cases: In vitro competitive activity-based protein profiling (gel-based, FP-Rh or HT-01 probe)
Common to all, as to assay type: biochemical

The target in one experiment is T1, ABHD6 (Mus musculus, UniProt Q8R2Y0).
T1 construct: Proteomes (mouse brain membrane fraction or cell lysates); from tissue; host or cells: mouse brain membrane fraction (or cell lysates, not specified)
T1 sequence (Q8R2Y0 1-336): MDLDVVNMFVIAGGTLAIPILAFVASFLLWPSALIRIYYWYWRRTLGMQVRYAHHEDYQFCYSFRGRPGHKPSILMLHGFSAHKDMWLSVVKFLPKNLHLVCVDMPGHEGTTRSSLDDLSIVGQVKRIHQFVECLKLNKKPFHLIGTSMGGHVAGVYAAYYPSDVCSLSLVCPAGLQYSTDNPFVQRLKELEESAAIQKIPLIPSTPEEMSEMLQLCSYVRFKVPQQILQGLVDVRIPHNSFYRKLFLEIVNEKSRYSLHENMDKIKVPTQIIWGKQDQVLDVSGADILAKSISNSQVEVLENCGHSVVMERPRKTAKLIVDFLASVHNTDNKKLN
The conditions noted are these: for inhibition at 1 µM: 1 μM inhibitor, read-out: % Inhibition at 1 μM, C = ABHD6; for inhibition at 10 µM: 10 μM inhibitor, read-out: % Inhibition at 10 μM, C = ABHD6; for IC50: mouse brain membrane fraction or cell lysates, 30 min preincubation at 37° C., read-out: Mouse (IC50 value, nM) ABHD6. The gist of the method: (§1)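 Steps: inhibitor dilutions + proteome (1.0 mg/mL), 30 min, 37° C; add FP-Rh or HT-01 (50 μM DMSO stock), 30 min, 37° C; quench in SDS buffer; SDS-PAGE; gel imaging; band densitometry.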

A further experiment addresses T2, MAGL (Mus musculus, UniProt O35678).
T2 construct: Proteomes (mouse brain membrane fraction or cell lysates); from tissue; host or cells: mouse brain membrane fraction (or cell lysates, not specified)
T2 sequence (O35678 1-303): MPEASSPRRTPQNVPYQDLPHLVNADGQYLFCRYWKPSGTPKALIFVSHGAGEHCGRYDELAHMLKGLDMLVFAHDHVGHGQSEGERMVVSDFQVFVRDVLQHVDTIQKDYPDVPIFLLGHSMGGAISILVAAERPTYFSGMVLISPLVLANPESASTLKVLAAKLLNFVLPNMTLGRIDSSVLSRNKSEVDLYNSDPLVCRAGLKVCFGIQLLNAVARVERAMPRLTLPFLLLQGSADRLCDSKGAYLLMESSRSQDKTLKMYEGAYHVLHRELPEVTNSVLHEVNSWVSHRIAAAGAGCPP
The conditions noted are these: for inhibition at 1 µM: 1 μM inhibitor; for inhibition at 10 µM: 10 μM inhibitor; for IC50: mouse brain membrane fraction or cell lysates, 30 min preincubation at 37° C., read-out: Mouse (IC50 value, nM) MAGL. The essentials: as §1

Another experiment has as its target T3, PLA2G7 (Mus musculus, UniProt Q60963).
T3 construct: Proteomes (mouse brain membrane fraction or cell lysates); from tissue; host or cells: mouse brain membrane fraction (or cell lysates, not specified)
T3 sequence (Q60963 22-440): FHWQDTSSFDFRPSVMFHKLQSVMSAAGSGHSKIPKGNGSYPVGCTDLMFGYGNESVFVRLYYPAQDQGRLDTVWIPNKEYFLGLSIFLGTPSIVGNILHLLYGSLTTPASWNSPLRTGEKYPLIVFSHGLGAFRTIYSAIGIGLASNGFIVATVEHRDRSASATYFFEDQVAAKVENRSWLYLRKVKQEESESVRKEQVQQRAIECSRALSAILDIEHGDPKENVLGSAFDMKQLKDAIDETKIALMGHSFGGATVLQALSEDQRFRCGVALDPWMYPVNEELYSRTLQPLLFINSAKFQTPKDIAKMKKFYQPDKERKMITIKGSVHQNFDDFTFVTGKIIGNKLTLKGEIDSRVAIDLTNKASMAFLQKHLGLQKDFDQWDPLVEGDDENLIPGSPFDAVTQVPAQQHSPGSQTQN
The conditions noted are these: for inhibition at 1 µM: 1 μM inhibitor, read-out: % Inhibition at 1 μM, D = PLA2G7; for inhibition at 10 µM: 10 μM inhibitor, read-out: % Inhibition at 10 μM, D = PLA2G7; for IC50: mouse brain membrane fraction or cell lysates, 30 min preincubation at 37° C. The essentials:
as §1

A further experiment deals with T4, FAAH (Mus musculus, UniProt O08914).
T4 construct: Proteomes (mouse brain membrane fraction or cell lysates); from tissue; host or cells: mouse brain membrane fraction (or cell lysates, not specified)
T4 sequence (O08914 1-579): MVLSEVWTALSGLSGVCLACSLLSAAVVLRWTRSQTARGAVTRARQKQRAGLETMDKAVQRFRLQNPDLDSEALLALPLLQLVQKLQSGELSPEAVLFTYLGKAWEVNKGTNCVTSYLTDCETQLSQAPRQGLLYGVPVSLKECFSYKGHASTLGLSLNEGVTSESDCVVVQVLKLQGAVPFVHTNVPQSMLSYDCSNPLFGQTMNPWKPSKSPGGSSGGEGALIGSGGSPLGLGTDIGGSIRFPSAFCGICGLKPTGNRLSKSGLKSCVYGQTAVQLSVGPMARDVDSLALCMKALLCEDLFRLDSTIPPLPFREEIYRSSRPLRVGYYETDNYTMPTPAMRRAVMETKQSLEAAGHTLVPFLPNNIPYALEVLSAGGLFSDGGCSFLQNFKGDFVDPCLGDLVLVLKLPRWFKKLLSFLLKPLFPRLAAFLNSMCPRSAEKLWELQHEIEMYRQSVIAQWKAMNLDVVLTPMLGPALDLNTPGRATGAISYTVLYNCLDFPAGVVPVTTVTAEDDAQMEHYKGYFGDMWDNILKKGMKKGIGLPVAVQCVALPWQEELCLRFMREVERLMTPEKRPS
The conditions noted are these: for inhibition at 1 µM: 1 μM inhibitor, read-out: % Inhibition at 1 μM, B = FAAH; for inhibition at 10 µM: 10 μM inhibitor, read-out: % Inhibition at 10 μM, B = FAAH; for IC50: mouse brain membrane fraction or cell lysates, 30 min preincubation at 37° C., read-out: Mouse (IC50 value, nM) FAAH. The essentials:
as §1

A word on the inhibition: it is the share of the control response that was lost under treatment. As for `O=C(N1CCN(Cc2ccc(OCc3ccccc3)cc2)CC1)n1cccn1` [Example 19, (4-(4-(Benzyloxy)benzyl)piperazin-1-yl)(1H-pyrazol-1-yl)methanone], the inhibition at 1 µM on ABHD6 was less than 25%; on MAGL it was 25 to 75%; at PLA2G7, less than 25%; on FAAH, greater than 75%. For the same molecule, the inhibition at 10 µM at ABHD6 was greater than 75%; on MAGL, greater than 75%; on PLA2G7 it was less than 25%; at FAAH, greater than 75%.

Take `O=C(c1cnn(C(=O)N2CCN(Cc3cccnc3)CC2)c1)N1CCCCC1` [Example 71, Piperidin-1-yl(1-(4-(pyridin-3-ylmethyl)piperazine-1-carbonyl)-1H-pyrazol-4-yl)methanone]: the inhibition at 1 µM at ABHD6 is 25 to 75%; on MAGL it was less than 25%; on PLA2G7, greater than 75%; on FAAH it was less than 25%. Moreover, the inhibition at 10 µM on ABHD6 is greater than 75%; at MAGL, less than 25%; on PLA2G7, greater than 75%; on FAAH, 25 to 75%.

The IC50 is the midpoint of a concentration-inhibition curve. Regarding `O=C(N1CCN(Cc2ccc(C(F)(F)F)cc2N2CCCC2)CC1)n1cc(-c2ccccc2C(F)(F)F)cn1` [Example 115, (4-(2-(Pyrrolidin-1-yl)-4-(trifluoromethyl)benzyl)piperazin-1-yl)(4-(2-(trifluoromethyl)phenyl)-1H-pyrazol-1-yl)methanone], the inhibition at 1 µM at ABHD6 is greater than 75%; on MAGL it was less than 25%; at PLA2G7 it was 25 to 75%; at FAAH, less than 25%. Besides, the inhibition at 10 µM at ABHD6 is 25 to 75%; at MAGL it was 25 to 75%; at PLA2G7 it was greater than 75%; on FAAH, 25 to 75%. For the same molecule, at ABHD6, the IC50 lay within 100 to 1000 nM.

Turning to `CC(=O)N1CCCN(C(=O)n2cc(C#N)cn2)CC1` [Example 177, 1-(4-Acetyl-1,4-diazepane-1-carbonyl)-1H-pyrazole-4-carbonitrile], the inhibition at 1 µM at ABHD6, on MAGL, at PLA2G7 and on FAAH was less than 25% in each case. The inhibition at 10 µM on ABHD6 is greater than 75%; at MAGL, less than 25%; on PLA2G7, greater than 75%; on FAAH, greater than 75%.

Consider `CN(Cc1cccc(-c2ccncc2)c1)C(=O)n1cc(Cl)cn1` [Example 220, 4-Chloro-N-methyl-N-(3-(pyridin-4-yl)benzyl)-1H-pyrazole-1-carboxamide], for which the inhibition at 1 µM is greater than 75% at ABHD6, greater than 75% at MAGL, 25 to 75% at PLA2G7 and greater than 75% on FAAH. Also, the inhibition at 10 µM at ABHD6, at MAGL, on PLA2G7 and at FAAH was greater than 75% each time. In addition, the IC50 at ABHD6 is 100 to 1000 nM; on MAGL, less than 100 nM; on PLA2G7 it was greater than 1000 nM; on FAAH, less than 100 nM.

As for `CC(C)(C)OC(=O)N1CCCN(C(=O)n2cc(C#N)cn2)CC1` [Example 27, tert-Butyl 4-(4-cyano-1H-pyrazole-1-carbonyl)-1,4-diazepane-1-carboxylate], the inhibition at 1 µM at ABHD6, on MAGL, on PLA2G7 and on FAAH was greater than 75% each time. The inhibition at 10 µM at ABHD6, at MAGL, at PLA2G7 and on FAAH was greater than 75% throughout.

For the molecule `O=C(NCCCCCc1ccccc1)n1cccn1` [Example 37, N-(5-phenylpentyl)-1H-pyrazole-1-carboxamide], the inhibition at 10 µM on ABHD6, at MAGL, on PLA2G7 and at FAAH was less than 25% each time.

Regarding `O=C(N1CCN(Cc2ccccc2Cl)CC1)n1cc(C(F)(F)F)cn1` [Example 275, (4-(2-Chlorobenzyl)piperazin-1-yl)(4-(trifluoromethyl)-1H-pyrazol-1-yl)methanone], the inhibition at 1 µM at ABHD6 (gel-based competitive ABPP), at MAGL (gel-based competitive ABPP), at PLA2G7 (gel-based competitive ABPP) and on FAAH (gel-based competitive ABPP) was greater than 75% throughout. The IC50 on ABHD6, at MAGL, on PLA2G7 and at FAAH was less than 100 nM throughout.

As to `CCN(Cc1cccc(OC)c1)C(=O)n1cc(C)cn1` [Example 251, N-Ethyl-N-(3-methoxybenzyl)-4-methyl-1H-pyrazole-1-carboxamide], the inhibition at 1 µM on ABHD6 (gel-based competitive ABPP), at MAGL (gel-based competitive ABPP), on PLA2G7 (gel-based competitive ABPP) and on FAAH (gel-based competitive ABPP) was less than 25% throughout.

Regarding `O=C(N1CCN(Cc2ccc3c(c2)OCO3)CC1)n1cc(-c2ccccc2)cn1` [Example 58, (4-(Benzo[d][1,3]dioxol-5-ylmethyl)piperazin-1-yl)(4-phenyl-1H-pyrazol-1-yl)methanone], the inhibition at 1 µM is greater than 75% on ABHD6, less than 25% at MAGL, greater than 75% on PLA2G7 and greater than 75% at FAAH. The inhibition at 10 µM at ABHD6, on MAGL, at PLA2G7 and on FAAH was greater than 75% in each case. Also, the IC50 at ABHD6 fell in the range of 100 to 1000 nM.

In the case of `Cc1cnn(C(=O)NCCCc2ccccc2)c1` [Example 32, 4-Methyl-N-(3-phenylpropyl)-1H-pyrazole-1-carboxamide], the inhibition at 10 µM on ABHD6, on MAGL, at PLA2G7 and on FAAH was less than 25% throughout.

As to `COc1cccc(N2CCN(C(=O)n3cc(C(F)(F)F)cn3)CC2)c1` [Example 234, (4-(3-Methoxyphenyl)piperazin-1-yl)(4-(trifluoromethyl)-1H-pyrazol-1-yl)methanone], the inhibition at 1 µM at ABHD6, on MAGL, on PLA2G7 and on FAAH was greater than 75% each time. For the same molecule, the inhibition at 10 µM at ABHD6, at MAGL, at PLA2G7 and on FAAH was greater than 75% in each case. For the same molecule, the IC50 at ABHD6, on MAGL, on PLA2G7 and on FAAH was less than 100 nM throughout.
